From patent US12668589B2, “N-formamidopyrazoline derivative as P2X3 receptor antagonist and use thereof” (HANGZHOU WESTAN PHARMACEUTICAL TECHNOLOGY CO., LTD, priority 2020, dated 2026)
Where two headings read alike, the source gives them in different places.

Key:
[1] = In-vivo pharmacokinetic experiments on rats; set-up: species or system SD rats; conditions: for clearance / half-life / Cmax / Vd / Tmax / bioavailability: both sexes, SD, plasma; for Vd: read-out: Vss
Method: SD rats were used, half male and half female, which were administered with compounds by intravenous injection (3 mg/kg), intraperitoneal injection (10 mg/kg) or gavage (30 mg/kg) at different doses. At different time points after administration, blood was collected into EDTA blood sample collection tubes. Plasma was separated by centrifugation and stored at −20° C. pending analysis.
Standard curve and quality control sample preparation and processing: a compound stock solution was taken and diluted with 50% methanol water to make standard working solutions containing each compound concentration of 20 to 10,000 ng/mL, and 60, 600, 6,000 ng/mL quality control working solutions. 47.5 μL of blank rat plasma was taken, respectively, in which 2.50 μL of the standard curve working solutions and quality control working solutions were added to prepare standard curve samples with each compound concentration of 1.00 to 500.00 ng/mL and quality control samples with concentrations of 3.00, 30.00 and 300.00 ng/mL. 200 μL of acetonitrile (containing 5 ng/mL internal standard verapamil) was added into each sample. After vortex oscillation for 3 minutes, centrifuging was conducted for 15 minutes at 20,000 rcf at 4° C. Supernatants were taken for LC-MS/MS analysis.
Compound blood sample processing: 5 μL of plasma samples were taken. 45 μL of Blank rat plasma was added. 200 μL of Acetonitrile (containing 5 ng/mL internal standard verapamil) was added. After vortex oscillation for 3 minutes, centrifuging was conducted for 15 minutes at 20,000 rcf at 4° C. Supernatants were taken for LC-MS/MS analysis.

human P2X2/3 = target: T1, human P2X2/3 (Homo sapiens, UniProt P56373+Q9UBL9); test: Inhibitory activity against human P2X2/3 (electrophysiological method); assay type: cell-based; conditions: read-out: hP2X2/3 (IC50)
T1 construct: expressed in transfected cells; host or cells: HEK293
T1 sequence (P56373 1-397): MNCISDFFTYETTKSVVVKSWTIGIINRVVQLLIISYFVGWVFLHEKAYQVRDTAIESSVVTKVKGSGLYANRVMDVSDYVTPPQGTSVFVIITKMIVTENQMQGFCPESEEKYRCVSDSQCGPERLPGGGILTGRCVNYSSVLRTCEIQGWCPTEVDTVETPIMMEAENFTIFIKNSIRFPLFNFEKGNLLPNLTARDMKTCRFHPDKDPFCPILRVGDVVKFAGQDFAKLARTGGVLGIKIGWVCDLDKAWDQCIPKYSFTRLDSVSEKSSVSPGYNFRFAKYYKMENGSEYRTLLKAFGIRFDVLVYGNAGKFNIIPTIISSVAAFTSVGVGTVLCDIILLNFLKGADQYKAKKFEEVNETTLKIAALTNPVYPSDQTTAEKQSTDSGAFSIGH
T1 sequence (Q9UBL9 1-471): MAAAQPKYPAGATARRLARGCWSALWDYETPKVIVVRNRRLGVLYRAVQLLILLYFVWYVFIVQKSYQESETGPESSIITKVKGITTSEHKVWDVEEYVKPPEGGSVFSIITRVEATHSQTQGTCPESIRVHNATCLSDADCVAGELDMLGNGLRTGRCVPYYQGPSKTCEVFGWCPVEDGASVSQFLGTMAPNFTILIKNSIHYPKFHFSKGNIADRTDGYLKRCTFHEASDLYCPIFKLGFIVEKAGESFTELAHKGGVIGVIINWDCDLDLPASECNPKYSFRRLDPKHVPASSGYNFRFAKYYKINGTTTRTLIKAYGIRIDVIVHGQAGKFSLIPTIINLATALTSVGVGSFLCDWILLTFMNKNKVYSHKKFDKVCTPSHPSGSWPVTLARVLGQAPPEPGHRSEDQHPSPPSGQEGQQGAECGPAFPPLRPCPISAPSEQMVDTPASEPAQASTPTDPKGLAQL

human P2X3 = target: T2, human P2X3 (Homo sapiens, UniProt P56373); test: cell-based
T2 sequence (P56373 1-397): T1 sequence (P56373 1-397)

human P2X4 = target: T3, human P2X4 (Homo sapiens, UniProt Q99571); test: Inhibitory activity against human P2X4 (electrophysiological method); assay type: cell-based; conditions: read-out: hP2X4 (IC50)
T3 construct: expressed in transfected cells; host or cells: HEK293
T3 sequence (Q99571 1-388): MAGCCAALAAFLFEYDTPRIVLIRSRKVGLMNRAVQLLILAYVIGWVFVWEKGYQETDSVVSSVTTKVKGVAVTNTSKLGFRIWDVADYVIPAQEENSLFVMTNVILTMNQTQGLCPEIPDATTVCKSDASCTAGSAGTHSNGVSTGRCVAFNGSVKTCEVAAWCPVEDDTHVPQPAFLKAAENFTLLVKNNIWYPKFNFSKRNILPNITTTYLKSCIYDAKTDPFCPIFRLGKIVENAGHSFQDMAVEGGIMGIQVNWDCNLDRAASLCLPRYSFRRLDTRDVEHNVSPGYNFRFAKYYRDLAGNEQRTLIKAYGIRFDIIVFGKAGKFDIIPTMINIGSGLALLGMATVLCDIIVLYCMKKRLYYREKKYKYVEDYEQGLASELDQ

[2] = iv, Rat PK i.v 3 mg/kg, read-out: Cmax/Co
[3] = po, Rat PK p.o 30 mg/kg, read-out: Cmax

Row | ACU ([1]; Rat PK i.v 3 mg/kg) [kg·ng·h/mL/mg] | ACU ([1]; Rat PK p.o 30 mg/kg) [kg·ng·h/mL/mg] | clearance ([1]; iv, Rat PK i.v 3 mg/kg) [mL/min/kg] | half-life ([1]; iv, Rat PK i.v 3 mg/kg) [h] | Cmax [1, 2] [ng/mL] | Vd ([1]; iv, Rat PK i.v 3 mg/kg) [L/kg] | Tmax ([1]; po, Rat PK p.o 30 mg/kg) [h] | bioavailability ([1]; po, Rat PK p.o 30 mg/kg) [%] | half-life ([1]; po, Rat PK p.o 30 mg/kg) [h] | Cmax [1, 3] [ng/mL] | IC50 (human P2X2/3) [nM] | IC50 (human P2X3) [nM] | IC50 (human P2X4) [nM] | SMILES
1 | 427.84 | 367.68 | 39.2 | 0.6 | 1750 | 2.05 | 1.8 | 86 | 2.23 | 4950 |  |  |  | CCOC(=O)N(C)[C@H]1CN(C(=O)N[C@H](C)c2cnc(C(F)(F)F)nc2)N=C1c1ccc(C)cc1 [Compound 4, (S)-4-(N-methyl-N-ethoxycarbonylamino)-3-(4-methylphenyl)-N-((R)-1-(2-(trifluoromethyl)pyrimidin-5-yl)ethyl)-4,5-dihydro-1H-pyrazol-1-carboxamide]
2 | 275.63 | 766 | 26.5 | 1.31 | 2210 | 2.8 | 0.92 | 36 | 2.71 | 1450 | 2420 | 56 | > 20000 | Cc1ccc(C2=NN(C(=O)N[C@H](C)c3ccc(C(F)(F)F)nc3)C[C@@H]2N2CCOC2=O)cc1 [Compound 22]
